Measured values published in PubChem BioAssay (NCI).
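Step 1: Grow cells in 96-well plates. Step 2: Expose to compound for 48 hours at 5 concentrations. Step 3: Interpolate endpoints linearly; if unreached, use highest concentration. GI50 is the concentration that inhibits growth by half. TGI marks complete inhibition of growth.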

What was measured:
Test in all cases: inhibition of tumour cell growth, NCI panel, 48 h
NCI-H522 lung = test system: NCI-H522 lung
UACC-62 melanoma = test system: UACC-62 melanoma
NCI-H460 lung = test system: NCI-H460 lung
SF-539 CNS = test system: SF-539 CNS
UO-31 renal = test system: UO-31 renal
SK-MEL-28 melanoma = test system: SK-MEL-28 melanoma
HL-60(TB) leukemia = test system: HL-60(TB) leukemia
HOP-92 NSCLC = test system: HOP-92 NSCLC
A498 renal = test system: A498 renal
HOP-62 NSCLC = test system: HOP-62 NSCLC

SMILES	GI50 (NCI-H522 lung)	TGI (NCI-H522 lung)	GI50 (UACC-62 melanoma)	TGI (UACC-62 melanoma)	GI50 (NCI-H460 lung)	TGI (NCI-H460 lung)	GI50 (SF-539 CNS)	TGI (SF-539 CNS)	GI50 (UO-31 renal)	TGI (UO-31 renal)	GI50 (SK-MEL-28 melanoma)	TGI (SK-MEL-28 melanoma)	GI50 (HL-60(TB) leukemia)	TGI (HL-60(TB) leukemia)	GI50 (HOP-92 NSCLC)	TGI (HOP-92 NSCLC)	GI50 (A498 renal)	TGI (A498 renal)	GI50 (HOP-62 NSCLC)	TGI (HOP-62 NSCLC)
CCCCN1CCN(c2ccc3nc(-c4ccc5nc(-c6ccc(OCC)c(OCC)c6)[nH]c5c4)[nH]c3c2)CC1	1.2 µM	3.97 µM	0.686 µM	2.18 µM	0.533 µM	1.86 µM	1.26 µM	2.56 µM	2 µM	5.8 µM	1.01 µM	2.22 µM	0.704 µM	3.18 µM	1.23 µM	3.17 µM	1.18 µM	2.47 µM		
COc1ccc(-c2nnc(Nc3nc(O)c(C4=c5cc(F)ccc5=NC4=O)s3)o2)cc1	33.9 µM	> 100 µM	35.1 µM	> 100 µM	34.2 µM	> 100 µM	80.9 µM	> 100 µM	37.9 µM	> 100 µM	> 100 µM	> 100 µM			87 µM	> 100 µM	41.7 µM	> 100 µM	18.2 µM	43.7 µM
COC[C@@H](N=CN1CCc2cc(OC)c(OC)cc2C1)C(C)(C)C		> 100 µM		> 100 µM		> 100 µM		> 100 µM		> 100 µM		> 100 µM		> 100 µM		> 100 µM				> 100 µM
COc1cc2c(cc1O)C(c1cc(O)c(O)c(OC)c1)C(O)(C(=O)O)C(CO)C2O (stereo not drawn)		> 100 µM		> 100 µM		> 100 µM		> 100 µM		> 100 µM		> 100 µM				> 100 µM		> 100 µM		> 100 µM
CC(=O)c1cccc(NC(=O)c2ccc(NC3=C(Cl)C(=O)N(Cc4ccccc4)C3=O)cc2)c1	2.45 µM	19.4 µM	13.8 µM	29.3 µM	22.1 µM	> 100 µM	11.4 µM	28.7 µM	1.52 µM	3.12 µM	25.6 µM	> 100 µM	2.83 µM	17.2 µM	6.45 µM	22.8 µM	19.6 µM	60.4 µM		
Brc1ccc(C2SCc3nc4ccccc4n32)cc1 (stereo not drawn)		12.4 µM		21.1 µM		27.3 µM		34.3 µM		32 µM		16.7 µM		12.4 µM		9.66 µM				22.4 µM
O=C(CC1C(=O)Nc2ccccc2S1(=O)=O)Nc1cccc(Cl)c1 (stereo not drawn)		31.7 µM		30.3 µM		31.8 µM		22.8 µM		32.9 µM		38.7 µM		44.1 µM		32.2 µM		39.1 µM		
C[n+]1c(/C=C/c2ccc(/C=N/NC(=O)c3ccc(C(=O)N/N=C/c4ccc(/C=C/c5cn6ccccc6[n+]5C)cc4)cc3)cc2)cn2ccccc21						> 100 µM		> 100 µM		> 100 µM		> 100 µM		67.4 µM		> 100 µM				> 100 µM
COc1cc2ccc(CC(N)=O)cc2cc1OC		> 100 µM		> 100 µM				> 100 µM		> 100 µM		> 100 µM				> 100 µM				> 100 µM
COc1ccc(C(=O)OC2C(OC3C(O)COC(O[C@H]4C[C@H]5[C@@H]6CC=C7C[C@@H](O)CC[C@]7(C)[C@H]6CC[C@]5(C)[C@H]4[C@H](C)C(=O)CCC(C)C)C3OC(C)=O)OCC(O)C2O)cc1 (stereo partly drawn)	< 0.003 µM	0.0173 µM	< 0.003 µM	< 0.003 µM	< 0.003 µM	0.306 µM	< 0.003 µM	< 0.003 µM	< 0.003 µM	0.0056 µM	< 0.003 µM	< 0.003 µM			0.00636 µM	1.43 µM	< 0.003 µM	< 0.003 µM	< 0.003 µM	0.592 µM
CN1C(=O)C(=CN(C)c2ccccc2)C(=O)N(C)C1=O				> 100 µM		> 100 µM		> 100 µM		> 100 µM		> 100 µM		> 100 µM				> 100 µM		
CC(=O)NC1=C(Sc2ccc(Cl)cc2)C(=O)c2ccccc2C1=O		1.18 µM		13.3 µM		23.2 µM		5.85 µM		4.13 µM		11.9 µM		1.63 µM		5.67 µM		16.4 µM		
N=C(N)SCc1ccc([N+](=O)[O-])cc1[N+](=O)[O-]	1.48 µM	3.12 µM	11.3 µM	25.3 µM	12.7 µM	32.7 µM	11 µM	25.7 µM	3.21 µM	14.3 µM			3.38 µM	17.3 µM	2.4 µM	9.91 µM	29.9 µM	66.6 µM	33.9 µM	79.1 µM
O=S(=O)(NCCO)c1cc[c]([Sb](=[O])([OH])[OH])cc1	> 100 µM	> 100 µM	> 100 µM	> 100 µM	> 100 µM	> 100 µM			> 100 µM	> 100 µM	> 100 µM	> 100 µM	> 100 µM	> 100 µM	> 100 µM	> 100 µM	> 100 µM	> 100 µM	> 100 µM	> 100 µM
Cc1cnc(SCCN2CCN(C)CC2)nc1-c1cc2ccccc2s1		29.6 µM		32.2 µM		14.6 µM		25.1 µM		20.8 µM		32.7 µM				18.3 µM		29.8 µM		4.81 µM
CN(C)CCOc1ccc(-c2cc(-c3ccc4c(c3)CC/C4=N\O)c(-c3ccncc3)o2)cc1	3.73 µM	8.02 µM	0.0906 µM	3.79 µM	1.1 µM	3.95 µM	3.64 µM	7.41 µM	5.21 µM	9.47 µM	0.111 µM	3.71 µM	5.46 µM	10.8 µM			4.22 µM	8.17 µM	3.84 µM	7.92 µM
Cc1cc(NS(=O)(=O)c2ccc(Nc3c4ccccc4nc4c(C(=O)Nc5ccc(S(=O)(=O)N=C(N)N)cc5)ccc(Cl)c34)cc2)no1		33.2 µM		73.5 µM		> 100 µM		41.7 µM		> 100 µM		> 100 µM		68.8 µM				> 100 µM		77.9 µM
CSc1nc(N)c2c(n1)NC(c1ccccc1)C1CCc3ccccc3C1=N2 (stereo not drawn)	2.59 µM	8.84 µM	6.01 µM	> 100 µM	8.29 µM	> 100 µM	> 100 µM	> 100 µM	0.737 µM	9.72 µM			4 µM	> 100 µM	3.08 µM	> 100 µM	> 100 µM	> 100 µM	> 100 µM	> 100 µM
